Values after ≈ are worked out from the molar mass of the structure shown. Like-named read-outs stand apart in the source and are kept apart here.
Experiments:
[1] = test system: C. albicans 3645; assay: Candida albicans panel MIC; assay type: cell-based; settings: Table 6, Candida albicans panel
Method in brief: (§1)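 MIC = lowest conc. with ≥50% inhibition vs drug-free fungus control, OD530 read. Serial dilution 128–0.25 μg/mL in RPMI/MOPS/2% glucose pH 7.0; 0.5-5×10^5 cells/mL; 37° C, 24 h.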

[2] = test system: C. albicans 8112; assay: Candida albicans panel MIC; assay type: cell-based; settings: Table 6, Candida albicans panel
Method in brief: as §1

[3] = test system: C. albicans 3990; assay: Candida albicans panel MIC; assay type: cell-based; settings: Table 6, Candida albicans panel
Method in brief: as §1

[4] = test system: C. albicans 3363; assay: Candida albicans panel MIC; assay type: cell-based; settings: Table 6, Candida albicans panel
Method in brief: as §1

[5] = test system: C. albicans 3880; assay: Candida albicans panel MIC; assay type: cell-based; settings: Table 6, Candida albicans panel
Method in brief: as §1

[6] = test system: C. albicans 3882; assay: Candida albicans panel MIC; assay type: cell-based; settings: Table 6, Candida albicans panel
Method in brief: as §1

[7] = test system: C. albicans 3881; assay: Candida albicans panel MIC; assay type: cell-based; settings: Table 6, Candida albicans panel
Method in brief: as §1

[8] = test system: Candida auris TDG2211; assay: microbe, parasite or virus in culture; assay type: cell-based; settings: Candidozyma auris
Method in brief: (§2)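 Starter cultures grown overnight at 37° C in RPMI 1640/MOPS/2% glucose, pH 7.0; inoculum 0.5-5×10^5/mL with compound serially diluted from DMSO into media.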

[9] = test system: Candida auris TDG2506; assay: microbe, parasite or virus in culture; assay type: cell-based; settings: Candidozyma auris
Method in brief: as §2

[10] = test system: C. auris (e.g. TDG1912, TDG2506 or 8984); assay: microbe, parasite or virus in culture; assay type: cell-based, Candida auris; settings: Candidozyma auris; efflux pump table; read-out: MIC Fluconazole, C. auris (e.g. TDG1912, TDG2506 or 8984)
[11] = test system: C. krusei NCPF3876; assay: microbe, parasite or virus in culture; assay type: cell-based, Candida krusei; settings: Pichia kudriavzevii
Method in brief: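 MIC taken as lowest concentration inhibiting growth ≥50% relative to drug-free control, from OD530 after 24 hours at 37° C. Fungi at 0.5-5×10^5/mL were exposed to serially diluted compound in RPMI 1640/MOPS/2% glucose medium adjusted to pH 7.0.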

Molecule `OC(Cn1cncn1)(Cn1cncn1)c1ccc(F)cc1F` [Fluconazole, fluconazole, reference compound] has an MIC [1] of at most 0.125 µg/mL, an MIC [2] of 0.125 µg/mL (≈ 0.408 µM) and an MIC [3] of 8 µg/mL (≈ 26.1 µM). The MIC [4] was 8 µg/mL (≈ 26.1 µM), the MIC [5] was 16 µg/mL (≈ 52.2 µM) and the MIC [6] was 16 µg/mL (≈ 52.2 µM). The MIC [7] was 8 µg/mL (≈ 26.1 µM), the MIC ([8]; TDG2211, read-out: MIC C. auris 2211) was 16 to 128 µg/mL (≈ 52.2 to 418 µM) and the MIC ([8]; TDG2211, Table 4, extended panel, 24 hours, ≥50% inhibition, read-out: MIC Candida auris TDG2211) was 64 µg/mL (≈ 209 µM). For the same molecule, the MIC ([9]; TDG2506, read-out: MIC C. auris 2506) was over 128 µg/mL, the MIC ([9]; TDG2506, Table 4, extended panel, 24 hours, ≥50% inhibition, read-out: MIC Candida auris TDG2506) was over 128 µg/mL and the MIC [10] was over 128 µg/mL. The MIC ([11]; NCPF3876, read-out: MIC C. Krusei NCPF3876) was 0.5 to 8 µg/mL (≈ 1.63 to 26.1 µM), the MIC ([11]; NCPF3876, read-out: MIC Fluconazole, C. krusei 3876) was 32 µg/mL (≈ 104 µM) and the MIC ([11]; NCPF3876, Table 4, common panel, 24 hours, ≥50% inhibition, read-out: MIC C. krusei NCPF3876) was 0.5 to 8 µg/mL (≈ 1.63 to 26.1 µM).
